From patent publication US6297257A, “Benzazine derivatives phosphodiesterase 4 inhibitors” (Zambon Group S.p.A., priority 1997, dated 2001)
Counter-ions that a name gives are not always drawn.

Assays:
[1] = target: T1, PDE 5 (Homo sapiens, UniProt O76074); assay: PDE 5 Enzyme Inhibition Test (SPA); type: biochemical; conditions: enzyme from human platelets; cGMP 1 μM; head prints (μM), no concentration figure
T1 construct: from tissue; host or cells: human platelets from platelet rich plasma
Protocol: (§1) PDE 3 and 5 Enzymes Inhibition Test a) Human Platelet Preparation
(§2) Human platelets were prepared from platelet rich plasma (PRP) obtained from the Hematological Dept. of the "L. Sacco" Hospital of Milan. […]
(§3) b) Purification of PDE 3 and PDE 5 with Fast Protein Liquid Chromatography (FPLC) Before the chromatographic step, platelets were thawed and 50 ml of 20 mM TRIS (pH=6.5) containing 5 mM β-mercapto-ethanol, 2 mM EDTA, 50 mM sodium acetate and 50 μM PMSF (homogenization buffer) were added. The platelet suspension was then homogenized by a Polytron homogenizer (Polytron PT 1200) for 20 seconds. The homogenate was centrifuged at 14,500 rpm for 20 minutes at 4° C., and the supernatant was applied to a UNO Q12 column (Bio-Rad) pre-equilibrated with the PMSF. A flow rate of 4.5 ml/min was used throughout the ion exchange chromatography procedure. The column was washed with PMSF (180 ml) and PDE 3 and PDE 5 were eluted by sodium acetate linear gradient from 0.05M to 1M. The fractions containing enzymatic activity were joined, dialyzed against water and concentrated 10 times by ultrafiltration. The resulting solution was stored at -20° C. in the presence of ethylenglycole (30%) v/v) until use. […]
(§4) c) Assay of Phoshodiesterase Activity
(§5) The enzyme activity was assessed with an Amersham kit based on the SPA technique (Scintillation Proximity Assay). The enzymatic reaction was effected in a total volume of 100 μl of TRIS/HCl buffer (50 mM, pH7.5), MgCl2 (8.3 mM), EGTA (1.7 mM), cAMP (for PDE 3 assay) or cGMP (for PDE 5 assay) (1 μM), [^3 H]cAMP or [^3 H]cGMP (10 μl), and 10 μl of the compounds of the invention. The reaction was started by adding the enzyme (10 μl) incubated for 40 minutes at 30° C. and stopped by adding 50 μl of SPA beads. The radioactivity due to the particles was measured in β-emitting counter. The results are expressed as percent activity versus the control present in each test.

[2] = test system: PDE 4; assay: PDE 4 Enzyme Inhibition (SPA); type: biochemical; conditions: enzyme from human PMNs, cAMP 1 μM; for IC50: 40 minutes at 30° C.
From the text: PDE 4 Enzyme Inhibition Study a) Purification of Human Polymorphonucleate Leukocytes The polymorphonucleate leukocytes (PMNs) were isolated from peripheral blood of healthy volunteers according to what described by Boyum A., Scand. J. Immunol., 1976, 50 suppl., 9). Shortly, the isolation of the PMNs was effected by Ficoll-Paque gradient centrifugation followed by sedimentation on dextrane and the erythrocyte contanunation was eliminated by hypotonic lysis. b) PDE 4 Enzyme Purification The human PMNs were re-suspended in TRIS/HCl buffer (10 mM pH 7.8) containing MgCl2 (5 mM), EGTA (4 mM), mercaptoethanol (5 mM), TRITON-X100 (1%), pepstatin A (1 μM), PMSF (100 μM) and leupeptin (1 μM), and homogenized by Polytron. The homogenate was centrifuged at 25,000×g per 30 minutes at 4° C. and the sumatant was used for the PDE 4 enzyme purification by ion exchange chromatography using the FPLC technique according to what described by Schudt C. et al., Naunyn-Schmidberg's Arch. Pharmacol., 1991, 334, 682. The surnatant was seeded on a UNO Q12 column (Bio-Rad) and the enzyme was eluted by sodium acetate gradient from 50 mM to 1M. The fractions containing enzymatic activity were joined, dialysed against water and concentrated. The resulting PDE 4 enzyme was stored at -20° C. in the presence of ethylenglycole (30%) v/v) till the use c) PDE 4 Enzyme Inhibition The enzyme activity was evaluated with an Amersham kit based on the SPA technique (Scintillation Proximity Assay). The enzymatic reaction was effected in a total volume of 100 μl of TRIS/HCl buffer (50 mM, pH7.5), MgCl2, (8.3 mM), EGTA (1.7 mM), cAMP (1 μM) and [^3 H]cAMP (~100.000 dpm). The compounds of the invention were added at the wanted concentrations. The reaction was started by adding the enzyme (15 μg protein/ml) in 40 minutes at 30° C. and stopped by adding 50 μl of suspension of SPA particles. The radioactivity due to the particles was measured in β-emitting counter. The IC50 values were calculated on 9 equidistant concentrations in logarithmic scale using a 4-parameters logistic function by a software.

[3] = test system: TNFα; assay: TNFα Synthesis Inhibition (LPS-induced, human monocytes, ELISA); type: cell-based; conditions: Monocyte, LPS 1 ng/ml, 16 hours at 37° C.
Protocol: TNFα Inhibition Test a) Human Monocytes Isolation The monocytes were isolated from peripheral blood of healthy volunteers according the procedure of […]. Natl. Cancer Inst., 1964, 32, 507. The monocytes and lymphocytes population was isolated by Ficoll gradient centrifugation, and the cells diluted at a density of 2.5×10^6 cells/ml in RPMI1640 incubation containing 1% inactivated bovine fetal serum, penicillin (100 U/ml) and streptomycin (100 U/ml) were placed in 24-wells plates (1 ml/well) and left to adhere for 1 hour at 37° C. with 5% CO2. At the end of the incubation the lymphocytes not adhering were removed by aspiration and the monocytes adhered to the plate were used in the next step. b) TNFα Synthesis Inhibition The TNFα synthesis from human monocytes was measured according to the method of Barnette M. et al., Biochemical Pharmacology, 1996, 51, 949. The monocytes were incubated for 1 hour with 1 ml of RPMI1640 incubation medium (1% inactivated bovine serum, 100 U/ml penicillin and streptomycin) containing different concentrations of the products according to the present invention or the carrier only for the controls. The TNFα synthesis from monocytes was induced by adding 1 ng/ml of LPS (lipopolysaccharide of E. Coli) and after 16 hours of incubation at 37° C., 5% CO2, the incubation medium was removed, and the surnatant stored at -80° C. until the measurement. The TNFα levels were determined by ELISA test with an Amersham kit. The results are set forth in Table 2 as IC50 measured with the same calculation of example 53.

[4] = target: T2, PDE 3 (Homo sapiens, UniProt Q14432); assay: PDE 3 Enzyme Inhibition Test (SPA); type: biochemical; conditions: enzyme from human platelets; cAMP 1 μM; head prints (μM), no concentration figure
T2 construct: the supernatant was applied to a UNO Q12 column (Bio-Rad); from tissue; host or cells: human platelets from platelet rich plasma
T2 sequence (Q14432 whole entry): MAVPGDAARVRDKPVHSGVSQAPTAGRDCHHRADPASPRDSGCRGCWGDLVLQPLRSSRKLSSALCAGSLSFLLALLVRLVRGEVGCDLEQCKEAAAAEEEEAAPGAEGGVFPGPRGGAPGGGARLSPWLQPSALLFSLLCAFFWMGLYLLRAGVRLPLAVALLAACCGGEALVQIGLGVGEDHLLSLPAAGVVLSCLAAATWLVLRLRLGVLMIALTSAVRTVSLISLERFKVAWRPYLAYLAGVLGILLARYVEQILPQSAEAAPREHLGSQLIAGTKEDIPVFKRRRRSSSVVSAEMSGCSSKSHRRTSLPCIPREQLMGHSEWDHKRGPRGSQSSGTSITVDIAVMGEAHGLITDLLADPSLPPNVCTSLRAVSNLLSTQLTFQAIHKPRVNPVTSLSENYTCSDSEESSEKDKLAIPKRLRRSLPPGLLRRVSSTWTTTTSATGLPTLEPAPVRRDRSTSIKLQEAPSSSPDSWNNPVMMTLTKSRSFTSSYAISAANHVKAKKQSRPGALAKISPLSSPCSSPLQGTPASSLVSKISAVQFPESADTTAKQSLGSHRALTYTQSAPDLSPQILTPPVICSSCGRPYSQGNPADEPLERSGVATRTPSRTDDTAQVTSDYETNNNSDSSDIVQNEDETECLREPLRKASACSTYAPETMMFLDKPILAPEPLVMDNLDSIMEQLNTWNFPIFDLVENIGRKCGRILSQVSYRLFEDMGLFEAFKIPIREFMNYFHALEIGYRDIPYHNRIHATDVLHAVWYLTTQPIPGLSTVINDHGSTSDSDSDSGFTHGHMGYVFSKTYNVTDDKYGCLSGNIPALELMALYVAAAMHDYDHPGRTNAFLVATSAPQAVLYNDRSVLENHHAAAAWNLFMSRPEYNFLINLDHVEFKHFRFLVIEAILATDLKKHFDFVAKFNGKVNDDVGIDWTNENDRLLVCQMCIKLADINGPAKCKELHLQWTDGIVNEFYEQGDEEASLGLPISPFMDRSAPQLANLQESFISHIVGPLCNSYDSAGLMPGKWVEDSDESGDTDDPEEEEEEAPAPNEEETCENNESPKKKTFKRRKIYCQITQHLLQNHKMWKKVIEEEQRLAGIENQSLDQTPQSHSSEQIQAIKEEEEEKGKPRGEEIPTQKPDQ
Protocol: as §1, §2, §3, §4, §5

COc1ccc2c(c1OCCCCCc1ccccc1)CCN=C2Cc1c(Cl)cncc1Cl.Cl [Compound 3, 1-(3,5-Dichloro-pyridin-4-yl-methyl)-5-(5-phenylpentyloxy)-6-methoxy-3,4-dihydro-isoquinoline Hydrochloride]
PDE 5 % inhibition (μM) [1]: 12%
PDE 4 % inhibition ([2]; 10^-6 M): 93%
IC50 [2]: 87.5 ± 17 nM
IC50 [3]: 83 ± 16 nM
PDE 3 % inhibition (μM) [4]: 24%

COc1ccc2c(c1OC1CCCC1)CCN=C2Cc1c(Cl)cncc1Cl [Compound 1, 5-Cyclopentyloxy-1-(3,5-dichloro-2-pridin-4-yl-methyl)-6-methoxy-3,4-dihydro-isoquinoline Hydrochloride]
PDE 5 % inhibition (μM) [1]: 10%
PDE 4 % inhibition ([2]; 10^-5 M): 96%
PDE 4 % inhibition ([2]; 10^-6 M): 79%
IC50 [2]: 148 ± 18 nM
IC50 [3]: 252 ± 67 nM
PDE 3 % inhibition (μM) [4]: 0%

COc1cc2[nH]cc(-c3c(Cl)cncc3Cl)c(=O)c2cc1OC1CCCC1 [Compound 10, 6-Cyclopentyloxy-3-(3,5-dichloro-pyridin-4-yl)-7-methoxy-1H-quinolin-4-one]
PDE 4 % inhibition ([2]; 10^-6 M): 73%

COc1cc2c(cc1OC1CCCC1)C(Cc1c(Cl)cncc1Cl)=NCC2.Cl [Compound 2, 7-Cyclopentyloxy-1-(3,5-dichloro-pyridin-4-yl-methyl)-6-methoxy-3,4-dihydro-isoquinoline Hydrochloride]
PDE 4 % inhibition ([2]; 10^-5 M): 88%
PDE 4 % inhibition ([2]; 10^-6 M): 54%
IC50 [2]: 1050 ± 191 nM

COc1ccc2c(c1OCCCCCc1ccccc1)CCNC2Cc1c(Cl)cncc1Cl.Cl.Cl (centres unmarked) [Compound 4, 1-(3,5-dichloro-pyridin-4-yl-methyl)-5-(5-phenylpentyloxy)-6-methoxy-1,2,3,4-tetrahydro-isoquinoline Dihydrochloride]
PDE 4 % inhibition ([2]; 10^-6 M): 54%

COC(=O)c1c(Cc2c(Cl)cncc2Cl)c2ccc(OC)c(OC3CCCC3)c2[nH]c1=O [Compound 8, 8-Cyclopentyloxy-4-(3,5-dichloro-pyridin-4-yl-methyl)-7-methoxy-2-oxo-1,2-dihydro-quinolin-carboxylic Acid Methyl Ester]
PDE 4 % inhibition ([2]; 10^-6 M): 60%

COc1cc2c(cc1OC1CCCC1)C(=O)C(c1c(Cl)cncc1Cl)CN2 (centres unmarked) [Compound 12, 6-Cyclopentyloxy-3-(3,5-dichloro-pyridin-4-yl)-7-methoxy-2,3-dihydro-1H-quinolin-4-one]
PDE 5 % inhibition (μM) [1]: 10%
PDE 4 % inhibition ([2]; 10^-5 M): 100%
PDE 4 % inhibition ([2]; 10^-6 M): 94%
IC50 [2]: 101 ± 21 nM
IC50 [3]: 78.7 ± 16 nM
PDE 3 % inhibition (μM) [4]: 12%
